Measured values from patent US20160083424A1, “COMPOSITIONS AND METHODS FOR TARGETING ANTIGEN-PRESENTING CELLS” (OSLO UNIVERSITETSSYKEHUS HF, priority 2013, published 2016).
Where two headings read alike, the source gives them in different places. Where no end group is shown, it is not given here.

What was measured:
B cells [1] = assay: Phage binding by flow cytometry; set-up: species or system human
Method: (§1) In brief, aliquots of DCs (10^5) were divided into conical 96-well micro-plate, washed with PBS buffer containing 1% FCS, and then incubated with the amplified phages (≈10^9 TU) for 30-60 min on ice. After washing, cells were incubated with biotinylated anti-M13 monoclonal antibody (Abcam) and then with phycoerythrin (PE)-conjugated streptavidin. Competition assays were performed by pre-incubating DCs with different amounts of the peptides for 15 min on ice. Then NW phage (≈10^9 TU) was added and samples incubated for additional 60 min on ice. After washing, bound phages were detected as indicated above. Samples were analyzed by FACSCanto II flow cytometry.

Blood myeloid DCs [2] = assay: Phage binding by flow cytometry; set-up: species or system human
Method: as §1

Blood pDCs [3] = assay: Phage binding by flow cytometry; set-up: species or system human
Method: as §1

[4] = tested on: Cancer cell lines (MCF-7, MDA-MB 231, SW480, REH); assay: Phage binding by flow cytometry; set-up: species or system human; conditions: all tested cancer cell lines
Method: as §1

Monocytes [5] = assay: Phage binding by flow cytometry; set-up: species or system human
Method: as §1

NK cells [6] = assay: Phage binding by flow cytometry; set-up: species or system human
Method: as §1

T cells [7] = assay: Phage binding by flow cytometry; set-up: species or system human
Method: as §1

iDCs [8] = assay: Phage binding by flow cytometry; set-up: species or system human
Method: as §1

mDCs [9] = assay: Phage binding by flow cytometry; set-up: species or system human
Method: as §1

THP-1 = assay: Phage binding by flow cytometry; conditions: human monocyte cell line THP-1
Method: as §1

DCs = assay: Fluorescence microscopy analysis of phage binding and internalization; type: cell-based, human; conditions: 37° C. for 90 min
Method: DCs were incubated with biotinylated phages at 4° C. for 30 min. After washing, the cells were incubated with streptavidin-PE. […] Hoechst 33342 dye was added to the cells for 5 min and then the cells were washed, fixed with 4% paraformaldehyde, and covered with Dako cytomation fluorescent mounting medium and analyzed with epifluorescence microscopy. Confocal images were obtained using an AxioVert 200 microscope (Carl Zeiss, Jena, Germany).

B cells [10] = assay: Peptide binding by flow cytometry; set-up: species or system human
Method: (§2) The cells were seeded onto 24-well plate (3×10^5/well/0.5 ml) in X-vivo 15 medium and incubated overnight at 37° C. Subsequently, they were incubated with 6IAF-conjugated peptides (5 μg/ml) for 30 min at 37° C., gently scraped, washed 3 times and then analyzed by flow cytometry. Binding was also performed at 4° C.

Blood myeloid DCs [11] = assay: Peptide binding by flow cytometry; set-up: species or system human
Method: as §2

Blood pDCs [12] = assay: Peptide binding by flow cytometry; set-up: species or system human
Method: as §2

Monocytes [13] = assay: Peptide binding by flow cytometry; set-up: species or system human; conditions: compared with dendritic cells
Method: as §2

NK cells [14] = assay: Peptide binding by flow cytometry; set-up: species or system human
Method: as §2

T cells [15] = assay: Peptide binding by flow cytometry; set-up: species or system human
Method: as §2

iDCs [16] = assay: Peptide binding by flow cytometry; set-up: species or system human; conditions: 4° C. and 37° C.
Method: as §2

iDC = assay: Competition of NW phage binding by synthetic peptides; set-up: species or system human
Method: as §1
To further investigate the importance of the NW peptide on phage binding, competition experiments were performed using synthetic peptides.

Monocytes [17] = assay: Competition of NW phage binding by NW peptide and its mutant peptides; set-up: species or system human
Method: as §1
To uncover the contribution of individual side chains and identify which amino acids are responsible for the NW peptide binding to monocytes and dendritic cells, alanine scanning was performed. Derivatives of the NW peptide were synthesized with exchange of each amino acid by alanine (FIG. 11A). These peptide derivatives were used to compete with the NW phage binding to monocytes. For each peptide, four concentrations were tested. Bound phage particles were detected with the use of biotin conjugated anti-M13 antibody and PE-conjugated streptavidin. The NW peptide (WT) competed effectively with the phage binding to monocytes with an IC50 of approximately 0.5 uM. The replacement of tryptophan (W) at position 2, 6, or 12 by a single alanine abolished the binding. Indeed, no significant competition with the phage binding was seen even at high peptide concentrations (C4=20 uM). Similarly, replacement of leucine (L) at position 4 or 7 by alanine inhibited the peptide binding (FIG. 11B).

iDCs [18] = assay: Peptide binding and internalization by fluorescence microscopy; type: cell-based, human
Method: Then the medium was replaced with fresh medium and the cells were incubated with the peptides (5 μg/ml) for 60 min at 37° C. followed by 5 min incubation with Hoechst 33342 (Invitrogen Dynal AS, Oslo, Norway). The cells were washed twice with PBS and fixed with 4% paraformaldehyde for 15 min at 4° C. After washing, slides were covered with Dako cytomation fluorescent mounting medium and then images were taken with either epifluorescence (Leica DM RHC, Leica Microscopy As, Oslo, Norway) or confocal microscopy (Zeiss LSM 510, […]).

mDC = assay: Phenotypic analysis of DCs after peptide incubation; type: cell-based, human; conditions: mDC incubated with peptide (15 μM) for 48 h, flow cytometry
Method: Phenotype of DCs was analyzed by direct immunofluorescence staining of cell surface antigens using FITC or PE conjugated antibodies against CD80, CD83, CD86, HLA-DR, CCR7, CD40, and isotype controls. All antibodies were purchased from Dako (Glostrup, Denmark) or BD Biosciences (San Diego, Calif., USA). After staining on ice for 30 min, samples were washed twice and then analyzed by FACSCantoII flow cytometry
(§3) With respect to cancer immunotherapy and active immunization against infectious diseases, targeting moieties should not have a negative impact on DC immunogenic function. To investigate whether the NW peptide can modulate DC phenotype and function, mDC were incubated with the peptide for 48 h and subsequently the expression of CD80, CD83, CD86, and HLADR molecules were analyzed by flow cytometry. […] The ability of mDCs to stimulate T-cell proliferation was assessed in a mixed leukocyte reaction (MLR), a hallmark of DC function. […] The NW-peptide had no major negative effects on DC phenotype and function.

mDCs [19] = assay: Mixed leukocyte reaction (MLR); type: cell-based, human; conditions: peptide-treated vs untreated mDCs
Method: as §3

human Gal-3 = assay: Gene silencing by peptide-siRNA conjugates, Western blot; type: cell-based; conditions: iDCs, 48 h incubation
Method: Immature DCs were seeded in a 6-well plate at a density of 10^6 cells per well and incubated for 24 h prior to transfection. Then the medium was replaced by fresh X-vivo 15 medium (2 ml/well) containing peptide-siRNA conjugates or free siRNAs. Cells were harvested 48 h after addition of the test molecules and monitored for gene expression by Western blots.
Cells were resuspended in protein extraction buffer (PBS+1% NP-40) supplemented with protease inhibitor cocktail (Sigma-Aldrich Norge, Oslo, Norway) and incubated for 30 min on ice. After centrifugation, the supernatant were collected and protein contents were determined using Bio-Rad protein assay. Equal amounts of protein were resolved by electrophoresis on a 10% sodium dodecyl sulfate (SDS)-polyacrylamide gel and electrotransferred to nitrocellulose membrane. After blocking in 5% milk in TBS-Tween (1%) for 60 min, membranes were probed with primary antibodies against Gal-3 and HRP-conjugated secondary antibody. Immunoreactive proteins were detected using the enhanced chemiluminescence system. To control for protein loading, membranes were stripped and then incubated with β-actin monoclonal antibody.
Because siRNA molecules must be released into the cytoplasm in order to function (Elbashir et al., (2001) Nature 411, 494-498), the data further confirm the internalization of the peptide after binding to DCs.

iDCs [20] = tested on: iDCs
Method: Commercially available streptavidin-PE (1/200) was incubated with biotinylated NW peptide or control peptide (1 μg/ml) for 30 min at RT. Then the mixtures were added to DCs growing in Lab-Tek chamber slides (Nalge Nunc International, Naperville, USA) and incubated for 60 min at 4° C. The cells were washed 3 times with medium and incubated at 37° C. for 90 min to allow internalization of bound streptavidin-PE. To visualize the nuclei, Hoechst 33342 (Invitrogen Dynal AS, Oslo, Norway) was added to the cells for 5 min. Subsequently, the cells were fixed with 4% paraformaldehyde, washed and slides were covered with Dako cytomation fluorescent mounting medium followed by epifluorescence microscopy analysis. Confocal images were taken with an AxioVert 200 microscope (Carl Zeiss, Jena, Germany).
The use of the NW peptide to target antigens to DCs was assessed by examining its ability to promote the binding and uptake of streptavidin-PE complexes. For these experiments, streptavidin-PE was pre-incubated with either biotin conjugated NW peptide or biotin conjugated control peptide and then the mixtures were added to iDCs growing in Lab-Tek chamber slides, incubated at 4° C., washed and then transferred at 37° C.

Monocytes [21] = conditions: biotin labeled peptide (10 μg), Dynabeads M-280 streptavidin, flow cytometry
Method: In these experiments, peripheral blood mononuclear cells were isolated from buffy coats of healthy donors by density gradient centrifugation. […] Subsequently, the cells were washed with the binding buffer to remove unbound peptide and then they were suspended in 100 μl binding buffer. Subsequently, pre-washed Dynabeads M-280 streptavidin (20 μl) were added and the mixtures were incubated for 15 min at room temperature with agitation. After, the mixtures were placed in the separation magnet, during which time the beads and any attached cells are drawn to one side of the tube. Non-attached cells were carefully aspirated off and analyzed by flow cytometry to check the removal of the monocyte fraction (FIG. 15).

[22] = molecular target: NW peptide receptor (human); assay: competition with NW phage on monocytes, flow cytometry; C3 = 8 µM peptide
[23] = molecular target: NW peptide receptor (human); assay: competition with NW phage on monocytes, flow cytometry

NWYLPWLGTNDW [DC2]
phage binding (B cells [1]): did not bind | Phage Binding (Blood myeloid DCs [2]; Blood myeloid DCs): ++++ (Binding >80-100%: ++++) | phage binding (Blood myeloid DCs [2]; blood CD1c+ myeloid DCs): bound | Phage Binding (Blood pDCs [3]; Blood pDCs): ++++ (Binding >80-100%: ++++) | phage binding (Blood pDCs [3]; CD303+ plasmacytoid DCs): bound | phage binding [4]: did not bind | Phage Binding (Monocytes [5]): ++++ (Binding >80-100%: ++++) | phage binding (Monocytes [5]): strong binding | phage binding (NK cells [6]): did not bind | phage binding (T cells [7]): did not bind | phage binding after trypsine treatment of DCs (iDCs [8]; Trypsine treatment of DCs, data not shown): eliminated phage binding | Binding (iDCs [8]; binding of the phage clones to iDC, flow cytometry): ++++ (Binding >80-100%: ++++) | phage binding (iDCs [8]; iDC): strong binding | Phage Binding (iDCs [8]; iDCs): ++++ (Binding >80-100%: ++++) | Phage Binding (mDCs [9]): ++++ (Binding >80-100%: ++++) | phage binding (mDCs [9]): strong binding | phage binding (THP-1): did not bind | internalization of the phage particles into DCs (DCs): able to mediate the internalization of the phage particles into DCs

NWYLPWLGTNDWC [NW peptide, NWYLPWLGTNDWC]
peptide binding (B cells [10]): did not bind | peptide binding (Blood myeloid DCs [11]; Blood myeloid DCs): ++++ (Binding >80-100%: ++++) | peptide binding (Blood myeloid DCs [11]; blood CD1c+ myeloid DCs): bound efficiently | peptide binding (Blood myeloid DCs [11]; blood CD1c+ myeloid DCs, listed as synthetic peptide): bound | peptide binding (Blood pDCs [12]; Blood pDCs): ++++ (Binding >80-100%: ++++) | peptide binding (Blood pDCs [12]; CD303+ plasmacytoid DCs): bound efficiently | peptide binding (Blood pDCs [12]; CD303+ plasmacytoid DCs, listed as synthetic peptide): bound | peptide binding (Monocytes [13]): bound as strongly to monocytes as to dendritic cells | peptide binding (NK cells [14]): did not bind | peptide binding (T cells [15]): did not bind | binding of 6-IAF-conjugated peptides to iDCs (iDCs [16]): strong binding both at 4 °C and 37 °C | inhibition of the phage binding to iDC by synthetic peptides (iDC): effectively inhibited the phage binding to iDC in a concentration-dependent manner | IC50 (Monocytes [17]; dose-dependent inhibition, peptide concentrations 0.4, 2, 8, and 20 μM, read-out: inhibition of the NW phage binding, IC50): 500 nM | IC50 (Monocytes [17]; monocytes, read-out: competition with the phage binding to monocytes, IC50): ~500 nM | cell staining by epifluorescence microscopy (iDCs [18]; 6-IAF-conjugated peptide): strong cell staining | internalization by iDCs (confocal microscopy) (iDCs [18]; 37° C.): efficiently internalized by iDCs | expression of CD80, CD83, CD86, and HLADR molecules (mDC): None of the analyzed markers were significantly affected | T-cell proliferation in MLR (mDCs [19]): comparable T-cell proliferation | Gal-3 gene silencing (human Gal-3): did not induce any detectable gene silencing

NWYLPWLGTNDWGGGK-Biotin [NW-Biotin peptide]
binding of streptavidin-PE complexes to DCs (iDCs [20]; biotinylated peptide pre-incubated with streptavidin-PE, 4° C.): mediated the binding of streptavidin-PE complexes to DCs | internalization of streptavidin-PE (iDCs [20]; confocal microscopy, after transfer to 37° C.): clear internalization and cellular localization of streptavidin-PE molecules | removal of the monocyte fraction from PBMC (Monocytes [21]): most, if not all monocyte population were removed

B1: N10D11 double mutant (peptide)
peptide: NWYLPWLGTAAW
mean fluorescence of bound NW phage at C3 concentration [22]: 250

B2: NW peptide with deletion of N10D11 (peptide)
peptide: NWYLPWLGTW
fold reduction in IC50 against the NW peptide [23]: 20 fold
